# Assay results as given in PubChem BioAssay AID1919005 (Molecular Pharmacology Branch, DTP, NCI, 2023).
# Where “and” joins values, the source holds several entries; their conditions need not be identical. Identical values can stand only once.
# System: 855422-203-R-J1-PDC complex spheroid growth
# Test: Anticancer human tumor 855422-203-R-J1-PDC patient-derived bladder carcinoma cell line growth inhibition [AhR]
# Conditions: for viability, T/C: stronger effect = lower value
# Summary of the method: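 Spheroids combined tumor cells with HUVEC endothelial cells and human MSCs as stroma. AhR antagonists were paired with standard or investigational drugs, each dosed in half-log steps down from near clinical Cmax, or from 10 microM where Cmax was unknown.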
# [1] = curve of first compound, second compound 0.1 µM
# [2] = curve of first compound, second compound 0.316 µM
# [3] = curve of first compound, second compound 1 µM
# [4] = curve of first compound, second compound 3.16 µM
# [5] = curve of first compound, second compound 10 µM
# [6] = second compound 0.1 µM, first compound 0.0316 µM
# [7] = second compound 0.1 µM, first compound 0.1 µM
# [8] = second compound 0.1 µM, first compound 0.316 µM
# [9] = second compound 0.1 µM, first compound 1 µM
# [10] = second compound 0.1 µM, first compound 3.16 µM
# [11] = second compound 0.1 µM, first compound 10 µM
# [12] = second compound 0.316 µM, first compound 0.0316 µM
# [13] = second compound 0.316 µM, first compound 0.1 µM
# [14] = second compound 0.316 µM, first compound 0.316 µM
# [15] = second compound 0.316 µM, first compound 1 µM
# [16] = second compound 0.316 µM, first compound 3.16 µM
# [17] = second compound 0.316 µM, first compound 10 µM
# [18] = second compound 1 µM, first compound 0.0316 µM
# [19] = second compound 1 µM, first compound 0.1 µM
# [20] = second compound 1 µM, first compound 0.316 µM
# [21] = second compound 1 µM, first compound 1 µM
# [22] = second compound 1 µM, first compound 3.16 µM
# [23] = second compound 1 µM, first compound 10 µM
# [24] = second compound 3.16 µM, first compound 0.0316 µM
# [25] = second compound 3.16 µM, first compound 0.1 µM
# [26] = second compound 3.16 µM, first compound 0.316 µM
# [27] = second compound 3.16 µM, first compound 1 µM
# [28] = second compound 3.16 µM, first compound 3.16 µM
# [29] = second compound 3.16 µM, first compound 10 µM
# [30] = second compound 10 µM, first compound 0.0316 µM
# [31] = second compound 10 µM, first compound 0.1 µM
# [32] = second compound 10 µM, first compound 0.316 µM
# [33] = second compound 10 µM, first compound 1 µM
# [34] = second compound 10 µM, first compound 3.16 µM
# [35] = second compound 10 µM, first compound 10 µM
# 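Further: spheroids exposed to agents for seven days before readout.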
# 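Wherever viability, T/C is given: percent of DMSO vehicle control luminescence viability.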
smiles,measurement,setting,value
CC(C)CC(NC(=O)C(Cc1ccccc1)NC(=O)c1cnccn1)B(O)O (configuration not stated) + CC(CO)NC(=O)c1cc(-c2ccc(Cl)cc2)nn(-c2cnn(C)c2)c1=O,IC50,[1],1.83 nM
same,IC50,[2],1.82 nM
same,IC50,[3],1.79 nM
same,IC50,[4],1.55 nM
same,IC50,[5],1.42 nM
same,"viability, T/C","second compound 0.1 µM, first compound 0.000949 µM",115%
same,"viability, T/C","second compound 0.1 µM, first compound 0.003 µM",0.93%
same,"viability, T/C","second compound 0.1 µM, first compound 0.00949 µM",0.37%
same,"viability, T/C","second compound 0.1 µM, first compound 0.03 µM",0.65%
same,"viability, T/C","second compound 0.1 µM, first compound 0.0949 µM",0.65%
same,"viability, T/C","second compound 0.1 µM, first compound 0.3 µM",0.89%
same,"viability, T/C","second compound 0.316 µM, first compound 0.000949 µM",113%
same,"viability, T/C","second compound 0.316 µM, first compound 0.003 µM",1.18%
same,"viability, T/C","second compound 0.316 µM, first compound 0.00949 µM",0.04%
same,"viability, T/C","second compound 0.316 µM, first compound 0.03 µM",0.01%
same,"viability, T/C","second compound 0.316 µM, first compound 0.0949 µM",0.02%
same,"viability, T/C","second compound 0.316 µM, first compound 0.3 µM",0.12%
same,"viability, T/C","second compound 1 µM, first compound 0.000949 µM",111%
same,"viability, T/C","second compound 1 µM, first compound 0.003 µM",0.73%
same,"viability, T/C","second compound 1 µM, first compound 0.00949 µM",0.02%
same,"viability, T/C","second compound 1 µM, first compound 0.03 µM",0.22%
same,"viability, T/C","second compound 1 µM, first compound 0.0949 µM",0.02%
same,"viability, T/C","second compound 1 µM, first compound 0.3 µM",0.11%
same,"viability, T/C","second compound 3.16 µM, first compound 0.000949 µM",86.3%
same,"viability, T/C","second compound 3.16 µM, first compound 0.003 µM",0.7%
same,"viability, T/C","second compound 3.16 µM, first compound 0.00949 µM",2.8%
same,"viability, T/C","second compound 3.16 µM, first compound 0.03 µM",0.03%
same,"viability, T/C","second compound 3.16 µM, first compound 0.0949 µM",0.14%
same,"viability, T/C","second compound 3.16 µM, first compound 0.3 µM",0.14%
same,"viability, T/C","second compound 10 µM, first compound 0.000949 µM",76.3%
same,"viability, T/C","second compound 10 µM, first compound 0.003 µM",1%
same,"viability, T/C","second compound 10 µM, first compound 0.00949 µM",0.16%
same,"viability, T/C","second compound 10 µM, first compound 0.03 µM",0.18%
same,"viability, T/C","second compound 10 µM, first compound 0.0949 µM",0.14%
same,"viability, T/C","second compound 10 µM, first compound 0.3 µM",0.2%
CC1COCCN1c1cc(C2(S(C)(=N)=O)CC2)nc(-c2ccnc3[nH]ccc23)n1 (configuration not stated) + Cc1cncc(-c2nc(NCCc3c[nH]c4ccccc34)c3ncn(C(C)C)c3n2)c1,IC50,[1],6690 nM
same,IC50,[2],6720 nM
same,IC50,[3],6270 nM
same,IC50,[4],1650 nM
same,IC50,[5],< 31.6 nM
same,"viability, T/C",[6],96.7%
same,"viability, T/C",[7],88.9%
same,"viability, T/C",[8],83.1%
same,"viability, T/C",[9],98.6%
same,"viability, T/C",[10],114%
same,"viability, T/C",[11],25.1%
same,"viability, T/C",[12],84.1%
same,"viability, T/C",[13],81.6%
same,"viability, T/C",[14],79.7%
same,"viability, T/C",[15],98.3%
same,"viability, T/C",[16],110%
same,"viability, T/C",[17],28.4%
same,"viability, T/C",[18],80.4%
same,"viability, T/C",[19],81.8%
same,"viability, T/C",[20],66.9%
same,"viability, T/C",[21],79.1%
same,"viability, T/C",[22],92%
same,"viability, T/C",[23],29.5%
same,"viability, T/C",[24],69%
same,"viability, T/C",[25],70.7%
same,"viability, T/C",[26],74.2%
same,"viability, T/C",[27],48.4%
same,"viability, T/C",[28],44.6%
same,"viability, T/C",[29],17.9%
same,"viability, T/C",[30],23.8%
same,"viability, T/C",[31],27.1%
same,"viability, T/C",[32],12.5%
same,"viability, T/C",[33],9.69%
same,"viability, T/C",[34],8.26%
same,"viability, T/C",[35],5.32%
Nc1ccccc1NC(=O)c1ccc(CNC(=O)OCc2cccnc2)cc1,"viability, T/C",compound 0.0316 µM,86.3% and 105% and 90.3%
same,"viability, T/C",compound 0.1 µM,87.8% and 108% and 86.7%
same,"viability, T/C",compound 0.316 µM,82.7% and 108% and 84.8%
same,"viability, T/C",compound 1 µM,82.7% and 109% and 97.4%
same,"viability, T/C",compound 3.16 µM,46.1% and 85.7% and 68.4%
same,"viability, T/C",compound 10 µM,5.42% and 27.3% and 14.9%
same,IC50,curve of compound,2800 nM and 6390 nM and 4690 nM
CC(C)c1c(-c2ccccc2)nc2c(C#N)c[nH]n2c1=O + Cc1cncc(-c2nc(NCCc3c[nH]c4ccccc34)c3ncn(C(C)C)c3n2)c1,IC50,[1],> 10000 nM
same,IC50,[2],> 10000 nM
same,IC50,[3],> 10000 nM
same,IC50,[4],> 10000 nM
same,IC50,[5],< 31.6 nM
same,"viability, T/C",[6],112%
same,"viability, T/C",[7],91.1%
same,"viability, T/C",[8],104%
same,"viability, T/C",[9],95.9%
same,"viability, T/C",[10],94.2%
same,"viability, T/C",[11],78.8%
same,"viability, T/C",[12],90.1%
same,"viability, T/C",[13],97.2%
same,"viability, T/C",[14],83.8%
same,"viability, T/C",[15],82.5%
same,"viability, T/C",[16],75.4%
same,"viability, T/C",[17],78.1%
same,"viability, T/C",[18],82.7%
same,"viability, T/C",[19],92.1%
same,"viability, T/C",[20],90%
same,"viability, T/C",[21],74.3%
same,"viability, T/C",[22],76.4%
same,"viability, T/C",[23],72.1%
same,"viability, T/C",[24],78.6%
same,"viability, T/C",[25],87.2%
same,"viability, T/C",[26],84.1%
same,"viability, T/C",[27],57%
same,"viability, T/C",[28],68.9%
same,"viability, T/C",[29],63.9%
same,"viability, T/C",[30],5.73%
same,"viability, T/C",[31],5.87%
same,"viability, T/C",[32],2.84%
same,"viability, T/C",[33],1.09%
same,"viability, T/C",[34],3.05%
same,"viability, T/C",[35],4.37%
NS(=O)(=O)OCC1CC(n2ccc3c(NC4CCc5ccccc54)ncnc32)CC1O (configuration not stated) + CC(CO)NC(=O)c1cc(-c2ccc(Cl)cc2)nn(-c2cnn(C)c2)c1=O,IC50,[1],855 nM
same,IC50,[2],795 nM
same,IC50,[3],699 nM
same,IC50,[4],524 nM
same,IC50,[5],470 nM
same,"viability, T/C",[6],99.8%
same,"viability, T/C",[7],117%
same,"viability, T/C",[8],93%
same,"viability, T/C",[9],43.2%
same,"viability, T/C",[10],15.3%
same,"viability, T/C",[11],10.1%
same,"viability, T/C",[12],90.5%
same,"viability, T/C",[13],109%
same,"viability, T/C",[14],84.4%
same,"viability, T/C",[15],41.5%
same,"viability, T/C",[16],12.4%
same,"viability, T/C",[17],7.98%
same,"viability, T/C",[18],104%
same,"viability, T/C",[19],102%
same,"viability, T/C",[20],85.4%
same,"viability, T/C",[21],34.1%
same,"viability, T/C",[22],11.4%
same,"viability, T/C",[23],9.77%
same,"viability, T/C",[24],87%
same,"viability, T/C",[25],97.9%
same,"viability, T/C",[26],61.9%
same,"viability, T/C",[27],31.9%
same,"viability, T/C",[28],9.85%
same,"viability, T/C",[29],8.37%
same,"viability, T/C",[30],87.6%
same,"viability, T/C",[31],82.8%
same,"viability, T/C",[32],53.5%
same,"viability, T/C",[33],38.6%
same,"viability, T/C",[34],11.7%
same,"viability, T/C",[35],8.14%
CC(C)c1c(-c2ccccc2)nc2c(C#N)c[nH]n2c1=O + Cc1ccccc1N=Nc1ccc(NC(=O)c2ccnn2C)c(C)c1,IC50,[1],> 10000 nM
same,IC50,[2],> 10000 nM
same,IC50,[3],> 10000 nM
same,IC50,[4],> 10000 nM
same,IC50,[5],> 10000 nM
same,"viability, T/C",[6],98.4%
same,"viability, T/C",[7],105%
same,"viability, T/C",[8],94.5%
same,"viability, T/C",[9],92.9%
same,"viability, T/C",[10],89.5%
same,"viability, T/C",[11],89%
same,"viability, T/C",[12],106%
same,"viability, T/C",[13],99%
same,"viability, T/C",[14],96.9%
same,"viability, T/C",[15],104%
same,"viability, T/C",[16],91.2%
same,"viability, T/C",[17],93%
same,"viability, T/C",[18],95.8%
same,"viability, T/C",[19],103%
same,"viability, T/C",[20],96.5%
same,"viability, T/C",[21],101%
same,"viability, T/C",[22],91.4%
same,"viability, T/C",[23],90.5%
same,"viability, T/C",[24],94.4%
same,"viability, T/C",[25],93.7%
same,"viability, T/C",[26],89.7%
same,"viability, T/C",[27],88.7%
same,"viability, T/C",[28],89.5%
same,"viability, T/C",[29],82.1%
same,"viability, T/C",[30],81.8%
same,"viability, T/C",[31],83.6%
same,"viability, T/C",[32],76.9%
same,"viability, T/C",[33],86%
same,"viability, T/C",[34],76.5%
same,"viability, T/C",[35],73.6%
